# Test results taken from US6369225B1, “Compounds having activity as inhibitors of cytochrome P450RAI” (Allergan Sales, Inc., priority 2000, dated 2002).
# What was measured:
# P450RAI-1 = target: T1, P450RAI-1 (Homo sapiens, UniProt O43174); assay: P450RAI-1 cell-based inhibitor assay; settings: P450RAI-1 stably transfected HeLa cells, [3H]-RA metabolism, 3 hours at 37° C.; read-out: P450RAI INHIBITION DATA INTACT HELA IC50
# T1 construct: expressed in transfected cells; host or cells: HeLa cells, stably transfected, hygromycin selection
# T1 sequence (O43174 1-497): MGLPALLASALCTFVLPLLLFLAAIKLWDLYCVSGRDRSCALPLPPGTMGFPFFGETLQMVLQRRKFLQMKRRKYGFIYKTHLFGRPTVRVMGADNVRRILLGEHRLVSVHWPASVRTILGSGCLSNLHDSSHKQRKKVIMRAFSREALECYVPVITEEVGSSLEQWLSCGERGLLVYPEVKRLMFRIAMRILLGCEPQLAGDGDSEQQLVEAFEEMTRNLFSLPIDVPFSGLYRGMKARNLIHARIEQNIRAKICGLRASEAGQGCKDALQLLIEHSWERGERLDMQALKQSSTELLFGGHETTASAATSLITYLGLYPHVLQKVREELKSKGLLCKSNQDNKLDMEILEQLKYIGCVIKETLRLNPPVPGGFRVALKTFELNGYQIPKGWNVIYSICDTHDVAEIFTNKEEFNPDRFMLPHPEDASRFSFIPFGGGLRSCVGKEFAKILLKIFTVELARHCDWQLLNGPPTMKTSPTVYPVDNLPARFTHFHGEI
# Experimental: P450RAI-1 stably transfected HeLa cells are maintained in […] tissue culture dishes in Modified Eagle's Medium (MEM) containing 10% Fetal Bovine Serum (FBS) and 100 μg/ml hygromycin. Exponentially growing cells are harvested by incubating in trypsin. Cells are then washed with 1× Phosphate Buffered Saline (PBS) and plated in a 48-well plate at 5×10^5 cells in 0.2 ml MEM medium containing 10% FBS and 0.05 μCi[^3H]-RA in the presence or absence of increasing concentrations of the test compounds. The compounds are diluted in 100% DMSO and then added in triplicate wells at either 10, 1 or 0.1 μM final concentration. As a positive control for RA metabolism inhibition, cells are also incubated with ketoconazole at 100, 10 and 1 μM. Cell are incubated for 3 hours at 37° C. […] The water soluble radioactivity is quantified using a β-scintillation counter. IC50 values represent the concentration of inhibitor required to inhibit all-trans-RA metabolism by 50 percent and are derived manually from log-transformed data.
# skin of hairless mice = assay: topical skin irritation test in hairless mice; type: in vivo, mouse; settings: topical in acetone, once daily days 1 through 5, mean ±SD, range 0-21
# From the text: Mice were housed individually throughout the dosing period.
# Doses are disclosed as nmol/25 g.
# The grading scale used is as follows:
# Values can range from 0-9.
# Values can range from 0-8.
# RARγ = target: T2, RARγ (Homo sapiens, UniProt P13631); assay: ligand binding assay, RARγ; settings: Kd line of EC50/(EFFICACY)/Kd, read-out: RAR Kd γ
# T2 sequence (P13631 1-454): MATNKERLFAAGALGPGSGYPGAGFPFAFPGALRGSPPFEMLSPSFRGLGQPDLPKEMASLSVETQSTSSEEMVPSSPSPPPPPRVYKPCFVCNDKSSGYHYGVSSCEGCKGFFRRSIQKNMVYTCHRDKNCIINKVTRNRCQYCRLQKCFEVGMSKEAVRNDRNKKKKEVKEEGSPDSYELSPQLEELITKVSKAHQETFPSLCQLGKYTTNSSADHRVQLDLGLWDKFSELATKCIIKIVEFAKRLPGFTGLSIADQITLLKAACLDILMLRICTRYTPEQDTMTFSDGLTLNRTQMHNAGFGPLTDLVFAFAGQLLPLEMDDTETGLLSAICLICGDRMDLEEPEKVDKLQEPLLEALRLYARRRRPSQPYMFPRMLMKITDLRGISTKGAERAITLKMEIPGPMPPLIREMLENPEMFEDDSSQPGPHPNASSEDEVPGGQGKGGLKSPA
# From the text: (§1) Assays described below measure the ability of a compound to bind to, and/or activate various retinoid receptor subtypes. When in these assays a compound binds to a given receptor subtype and activates the transcription of a reporter gene through that subtype, then the compound is considered an agonist of that receptor subtype. […] In the below described assays the ability of the compounds to bind to RARα, RARβ, RARγ, RXRα, RXRβ and RXRγ receptors, and the ability or inability of the compounds to activate transcription of a reporter gene through these receptor subtypes can be tested.
# (§2) A holoreceptor transactivation assay and a ligand binding assay which measure the antagonist/agonist like activity of the compounds of the invention, or their ability to bind to the several retinoid receptor subtypes, respectively, are described in published PCT Application No. WO WO93/11755 (particularly on pages 30-33 and 37-41) published on Jun. 24, 1993, the specification of which is also incorporated herein by reference. A detailed experimental procedure for holoreceptor transactivations has been described by Heyman et al. Cell 68, 397-406, (1992); Allegretto et al. J. Biol. Chem. 268, 26625-26633, and Mangelsdorf et al. The Retinoids: Biology, Chemistry and Medicine, pp 319-349, Raven Press Ltd., New York, which are expressly incorporated herein by reference. The results obtained in this assay are expressed in EC50 numbers, as they are also in the chimeric receptor transactivation assay. The results of ligand binding assay are expressed in Kd numbers. (See Cheng et al. Biochemical Pharmacology Vol. 22 pp 3099-3108, expressly incorporated herein by reference.)
# (§3) The results if the ligand binding assay for several preferred compounds of the invention are included in Table 1.
# RARβ = target: T3, RARβ (Homo sapiens, UniProt P10826); assay: ligand binding assay, RARβ; settings: Kd line of EC50/(EFFICACY)/Kd, read-out: RAR Kd β
# T3 sequence (P10826 1-455): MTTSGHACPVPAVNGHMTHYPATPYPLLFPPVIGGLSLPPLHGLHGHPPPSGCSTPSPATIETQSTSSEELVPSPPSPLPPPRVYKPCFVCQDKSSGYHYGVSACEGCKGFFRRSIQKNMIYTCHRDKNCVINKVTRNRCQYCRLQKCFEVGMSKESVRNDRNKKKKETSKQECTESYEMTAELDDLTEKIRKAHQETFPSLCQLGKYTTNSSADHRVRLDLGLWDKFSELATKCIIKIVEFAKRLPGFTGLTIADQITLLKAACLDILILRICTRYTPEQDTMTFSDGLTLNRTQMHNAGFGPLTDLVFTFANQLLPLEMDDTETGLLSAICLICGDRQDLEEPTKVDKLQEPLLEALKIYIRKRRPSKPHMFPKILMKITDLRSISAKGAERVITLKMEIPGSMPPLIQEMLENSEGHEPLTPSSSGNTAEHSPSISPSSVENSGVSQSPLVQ
# From the text: as §1
# as §2, with “A detailed experimental procedure for holoreceptor transactivations has been described by Heyman et al. Cell 68, 397-406, (1992); Allegretto et al. J. Biol. Chem. 268, 26625-26633, and Mangelsdorf et al. The Retinoids: Biology, Chemistry and Medicine, pp 319-349, Raven Press Ltd., New York, which are expressly incorporated herein by reference.” left out
# RARα = target: T4, RARα (Homo sapiens, UniProt P10276); assay: ligand binding assay, RARα; settings: Kd line of EC50/(EFFICACY)/Kd, read-out: RAR Kd α
# T4 sequence (P10276 1-462): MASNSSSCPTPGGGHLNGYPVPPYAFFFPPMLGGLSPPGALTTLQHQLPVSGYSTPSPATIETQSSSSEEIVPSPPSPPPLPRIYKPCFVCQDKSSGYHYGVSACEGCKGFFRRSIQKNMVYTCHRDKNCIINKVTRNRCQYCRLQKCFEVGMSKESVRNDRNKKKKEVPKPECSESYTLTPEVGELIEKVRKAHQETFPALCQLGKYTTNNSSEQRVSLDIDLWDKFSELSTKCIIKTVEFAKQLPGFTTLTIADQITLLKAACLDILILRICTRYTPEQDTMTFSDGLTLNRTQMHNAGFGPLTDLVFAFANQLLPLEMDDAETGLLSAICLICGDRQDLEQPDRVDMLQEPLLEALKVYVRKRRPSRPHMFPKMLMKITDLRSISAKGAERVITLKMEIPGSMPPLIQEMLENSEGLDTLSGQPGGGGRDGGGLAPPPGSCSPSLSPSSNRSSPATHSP
# From the text: as §1, §2, §3
Structure (SMILES),IC50 (P450RAI-1),Cutaneous Toxicity Score (Blackjack Score) (skin of hairless mice; 100 nmole (nmol/25 g)),Cutaneous Toxicity Score (Blackjack Score) (skin of hairless mice; 300 nmole (nmol/25 g)),Cutaneous Toxicity Score (Blackjack Score) (skin of hairless mice; 1000 nmole (nmol/25 g)),Kd (RARγ),Kd (RARβ),Kd (RARα)
"CC1(C)CN(C2CC2)Cc2ccc(C#Cc3ccc(CC(=O)O)c(F)c3)cc21 [Compound 22, [4-(2-Cyclopropyl-4,4-dimethyl-1,2,3,4-tetrahydro-isoquinoline-6-yl-ethynyl)-2-fluoro-phenyl]-acetic Acid]",1.6 µM,0 ± 0,0 ± 0,1 ± 1,–,–,–
"COC1(c2ccc(C#Cc3ccc(CC(=O)O)cc3)cc2)CC1 [Compound 70, {4-[4-(1-Methoxycyclopropyl)-phenylethynyl]-phenyl}-acetic Acid]",> 10 µM,–,–,–,> 10 µM,> 10 µM,> 10 µM
"CC1(C)CC(C)(C)c2cc(C#Cc3ccc(C(=O)O)c(F)c3)ccc2O1 [Compound 30, 2-Fluoro-4-(2,2,4,4-tetramethyl-chroman-6-yl-ethynyl)-benzoic Acid]",0.28 µM,–,–,–,0.084 µM,0.0022 µM,0.014 µM
"O=C(O)Cc1ccc(C#Cc2ccc(C3(OCc4ccccc4)CC3)cc2)cc1 [Compound 78, {4-[4-(1-Benzyloxycyclopropyl)-phenylethynyl]-phenyl}-acetic Acid]",> 10 µM,–,–,–,> 10 µM,> 10 µM,> 10 µM
"CC1(C)CC(C)(C)c2cc(C#Cc3ccc(CC(=O)O)c(F)c3)ccc2O1 [Compound 32, [2-Fluoro-4-(2,2,4,4-tetramethyl-chroman-6-yl-ethynyl)phenyl]acetic Acid]",0.18 µM,–,–,–,13 µM,4.22 µM,27 µM
"Cc1cc(C#Cc2ccc(CC(=O)O)cc2)ccc1C1(OCc2ccccc2)CC1 [Compound 82, {4-[4-(1-Benzyloxycyclopropyl)-3-methyl-phenylethynyl]-phenyl}-acetic Acid]",> 10 µM,–,–,–,> 10 µM,> 10 µM,> 10 µM
"O=C(O)c1ccc(C#Cc2ccc(C3(OCc4ccccc4)CC3)cc2)cc1 [Compound 77, 4-[4-(1-Benzyloxycyclopropyl)-phenylethynyl]-benzoic Acid]",> 10 µM,–,–,–,0.016 µM,0.225 µM,2.21 µM
"CCc1cc(C#Cc2ccc(CC(=O)O)cc2)ccc1C1(OCc2ccccc2)CC1 [Compound 94, {4-[4-(1-Benzyloxycyclopropyl)-3-ethyl-phenylethynyl]-phenyl}-acetic Acid]",> 10 µM,–,–,–,> 10 µM,> 10 µM,> 10 µM
"Cc1cc(C#Cc2ccc(CC(=O)O)cc2)ccc1C1(OCC(C)(C)C)CC1 [Compound 90, {4-[4-[1-(2,2-Dimethylpropyloxy)-cyclopropyl]-3-methyl-phenylethynyl]-phenyl}-acetic Acid]",0.95 µM,–,–,–,> 10 µM,> 10 µM,> 10 µM
"CC1(C)CC2(CC2)Oc2ccc(C#Cc3ccc(CC(=O)O)cc3)cc21 [Compound 42, Benzeneacetic Acid, 4-[(3,4-dihydro-4,4-dimethylspiro[2H-1-benzopyran-2,1′-cyclopropane]-6-yl)ethynyl]-]",0.19 µM,–,–,–,> 10 µM,3.64 µM,15 µM
"CC1(C)CCC(=O)c2ccc(C#Cc3ccc(CC(=O)O)c(F)c3)cc21 [Compound 15, [2-Fluoro-4-(8,8-dimethyl-5-oxo-5,6,7,8-tetrahydro-naphthalene-2-yl-ethynyl)phenyl]-acetic Acid]",–,1 ± 1,–,5 ± 2,–,–,–
"Cc1cc(C#Cc2ccc(CC(=O)O)cc2)ccc1C1(OC(C)C)CC1 [Compound 86, {4-[4-(1-Isopropoxycyclopropyl)-3-methyl-phenylethynyl]-phenyl}-acetic Acid]",1.4 µM,–,–,–,> 10 µM,> 10 µM,> 10 µM
"CC1(C)CC(C)(C)c2cc(C#Cc3ccc(CC(=O)O)cc3)ccc2O1 [Compound 28, [4-(2,2,4,4-Tetramethyl-chroman-6-yl-ethynyl)phenyl]acetic Acid]",0.34 µM,–,–,–,> 10 µM,4.27 µM,21 µM
